According to patent US8524744B2, “Arylamine ketones, their preparation methods, the pharmaceutical composition containing them and their use” (Institute of Mataria Medica, Chinese Academy of Medical …, priority 2004, dated 2013):
Counter-ions that a name gives are not always drawn.

Key:
[1] = tested on: polymorphonuclear leucocytes from rat pleural cavity; assay: release of β-glucuronidase by polymorphonuclear leucocytes from rat pleural cavity in vitro (PAF as irritant); assay type: cell-based
Method: 1% carrageenan was injected into the right pleural cavity of Wistar rat to induce polymorphonuclear leucocytes. The cells was suspended in Dulbecoo's buffer at the concentration of 2.5×10^6 cells·ml^1. The fluid containing the compound or solvent and 250 μl of cells suspension were added in test tube and incubated in 37° C. waterbath for 15 min. Then 2.5 μl of cytochalasin B (1×10^−3 mol·L^−1) was added and the reaction was continued for 5 min. Then 2.5 μl of PAF (1×10^−4 mol·L^−1) was added and for another 5 min. The test tubes were put into ice bath to stop the reaction. The supernatant was isolated and used as the β-glucuronidase release fluid. 25 μl of the enzyme fluid, 25 μl of phenolphthalein-glucuronic acid (2.5 mmol·L^−1) and 100 μl of acetic acid buffer (0.1 mol·L^−1) were added into each well of 96-well plate which was placed into incubater and kept at 37° C.3 for 18 hr. 150 μl of NaOH (0.3 mol·L^−1) was added in each well to cease the reaction and the optical density was read at 550 nm.

[2] = target: T1, PAF receptors of rat polymorphonuclear leucocytes (Rattus norvegicus, UniProt P46002); assay: competitive binding of [3H]-PAF to its receptors of rat polymorphonuclear leucocytes; details: 37° C., 30 min, read-out: IC50, competition with [3H]-PAF binding
T1 construct: The suspension of rat polymorphonuclear leucocytes was prepared; endogenous in cells; host or cells: rat polymorphonuclear leucocytes (primary, whole-cell suspension)
T1 sequence (P46002 whole entry): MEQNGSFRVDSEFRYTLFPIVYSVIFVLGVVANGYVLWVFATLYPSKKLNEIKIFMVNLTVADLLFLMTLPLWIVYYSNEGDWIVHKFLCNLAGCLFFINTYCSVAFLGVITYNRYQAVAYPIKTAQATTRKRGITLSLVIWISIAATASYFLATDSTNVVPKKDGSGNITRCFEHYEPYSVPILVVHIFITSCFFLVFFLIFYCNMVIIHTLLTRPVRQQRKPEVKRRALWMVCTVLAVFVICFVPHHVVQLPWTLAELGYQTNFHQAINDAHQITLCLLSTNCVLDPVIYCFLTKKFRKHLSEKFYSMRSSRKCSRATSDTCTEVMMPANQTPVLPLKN
Method: The suspension of rat polymorphonuclear leucocytes was prepared. 240 μl of cells suspension (2×10^6cells·ml^−1), 5 μl of [^3H](5 μmol·L^1) were added into each well. 5 μl of unlabeled PAF (5 μl mol·L^−1)was added into the well for the nonspecific binding. The series concentrations of compound were added into the well for the competitive binding and the corresponding volume of solvent was added into the wells for the total binding or the nonspecific binding. The reaction was kept in water bath at 37° C. for 30 min and stopped by ice bath. Reaction fluid was filtrated using the filter membrane which was rinsed by cold buffer to separate the free labeled ligand. The filter membrane was dried at 80° C. and placed into a vial for scintillation in which 5 ml of scintillation agent was poured. The radioactivity strength was measured by scintillation counter.

rat neutrophils = assay: chemotaxis of rat neutrophils in vitro; assay type: cell-based; details: Neutrophil, 4 hr, read-out: IC50, inhibition of chemotaxis
Method: The blood was collected from rat common carotid artery and anticoagulated. The neutrophils was isolated by 5% glucose solution and lymphocyte separating medium. 27 μl of irritant was added into the well at low part of the chemotaxis plate. The filter membrane was covered on the wells and the top part of the plate was assembled on the filter. 50 μl of cells suspension with various concentrations of compound or solvent was added into the well at top part of the plate. The plate was incubated at 37° C. for 4 hr. The filter was taken out, stained by hematoxylin and dehydrated. The cells migrated into the other side of the filter was counted by microscope.

[3] = tested on: intracellular calcium level of rat polymorphonuclear leucocytes; assay: increase of intracellular calcium level of rat polymorphonuclear leucocytes (Fura-2/AM, PAF); assay type: cell-based; details: Leucocyte, read-out: IC50, inhibition of the increase of intracellular calcium level
Method: 1% carrageenan was used to induce polymorphonuclear leucocytes from rat peritoneal cavity. The Fura-2/AM (final concentration: 3×10^−6 mol·L^−1) was added into cells suspension. 1 ml of cells suspension was added into the test tube with compound or solvent. The test tubes were placed in a shaking waterbath at 37° C. for 45 min. Then the test tubes were cooled at room temperature for 15 min. The cells were rinsed twice using HBSS to discarded Fura-2/AM remained in outside of the cells. The suspension of cells loaded with Fura-2/AM was added into the absorbent chamber of fluorospectrometer. The cells were kept to suspend at 37° C. and the fluorescence strength was measured at resting condition or after 20μl of PAF (1×10^−4 mol·L^−1), 20 μl of 10% Triton X-100 and 100 μl EGTA (500 mmol·L−1) was added, respectively. The changes of the intracellular level of calcium at the resting condition or after irritants were added was calculated by program for Ca^2+ measurement.

[4] = tested on: mouse ear edema induced by croton oil; assay: mouse ear edema induced by croton oil; assay type: in vivo; details: orally, 50 mg·kg^−1, Kunming mice
Method: Kuming mice (male, 18-22 g) were randomly divided into two groups (treatment and control) with 10 animals for each group. The animals were orally administrated with compounds or solvent, respectively. 1 hr later, 50 μl of 2% croton oil was smeared on the two sides of mouse left ear. After 4 hr the mice were sacrificed by cervical vertebra displacement. The two ears were cut off and the central sections were excised using a punch with a diameter of 8 mm and weighed. Edema was quantified as the weight difference between the two sections.

[5] = tested on: mouse paw swelling induced by carrageenan; assay: mouse paw swelling induced by carrageenan; assay type: in vivo; details: orally, 50 mg·kg^−1, Kunming mice
Method: Kunming mice (male, 18-22 g) were randomly divided into two groups (treatment and control) with 10 animals for each group. The animals were orally administrated with compounds or solvent, respectively. 1 hr later, 50 μl of 1% carrageenan was intracutaneously injected into the sole of right posterior foot. After 4 hr the animals were sacrificed by displacing cervical vertebra. The two paws were cut off at ankle joint and weighed. The swelling was evaluated by the difference of the weights of two paws.

[6] = tested on: cutaneous vascular permeability in mice induced by PAF; assay: increase of cutaneous vascular permeability in mice induced by PAF; assay type: in vivo, mouse; details: orally, 50 mg·kg^−1, Kunming mice
Method: Kunming mice (male, 18-22 g) were randomly divided into two groups (treatment and control) with 10 animals for each group. The animals were orally administrated with the compounds or solvent, respectively. 1 hr later, 0.25 ml of 1% evans blue dye was injected into the tail vein. After 10 min, 0.1 ml of PAF (1×10^−8 mol·L^−1) was intracutaneously injected into the dorsal skin shaved. 1 hr later, the animals were sacrificed by cervical vertebra displacement. The skin with blue spot was cut off. The evans blue dye was extracted by 0.8 ml of mixed solution of acetone and normal saline (7:3). The supernatant was transferred into the 96-well plate. The optical density was measured at 620 nm.

mouse ear edema = details: induced by arachidonic acid; cited from earlier work

Row | Compound | Inhibition (%) of β-glucuronidase release ([1]; Dose 1 × 10^−5 mol · L^−1, Irritant 1 × 10^−6 mol · L^−1) | IC50 ([1]; Leucocyte, rat polymorphonuclear leucocytes) | IC50 [2] | IC50 (rat neutrophils) | IC50 [3] | Inhibition (%) of mouse ear edema [4] | Inhibition (%) of mouse paw swelling [5] | Inhibition (%) of increase of cutaneous vascular permeability [6] | mouse ear edema (mouse ear edema)
1 | O=C(C=Cc1ccc(C(F)(F)F)cc1)CCN1CCC(Cc2ccccc2)CC1 [Compound 20, 5-[(4-Benzyl)piperidyl]-1-(4-trifluoromethylphenyl)-1-penten-3-one hydrochloride] | 104.03% | 308 nM | 55000 nM | 335 nM | 5160 nM | 27.66% | 21.46% | 55.78% | 
2 | COc1cc([C@H]2CC[C@H](c3cc(OC)c(OC)c(OC)c3)O2)cc(CNC(=O)N(C)O)c1OCCSc1ccc(Cl)cc1 [LDP-392] |  |  |  |  |  |  |  |  | significantly inhibit
